From patent US6204026A, “Detection of M. tuberculosis complex via reverse transcriptase SDA” (priority 1997, dated 2001)

Test system: M. tuberculosis
Format: cell-based, Mycobacterium tuberculosis

Structure (SMILES)	time of exposure within which changes in α-antigen mRNA were detected [h]	decline in detectable α-antigen mRNA, compared with INH-treated cultures
NNC(=O)c1ccncc1 [INH, Isoniazid]	≤ 24	
CO[C@H]1/C=C/O[C@@]2(C)Oc3c(C)c(O)c4c(O)c(c(/C=N/N5CCN(C)CC5)c(O)c4c3C2=O)NC(=O)/C(C)=C\C=C\[C@H](C)[C@H](O)[C@@H](C)[C@@H](O)[C@@H](C)[C@H](OC(C)=O)[C@@H]1C [RIF, rifampin]	≤ 24	more rapid
